Experimental data published in patent US9675072B2, “Tetrazolinone compound and application of same” (SUMITOMO CHEMICAL COMPANY, LIMITED, priority 2013, dated 2017).

Tests used:
Format in all cases: in vivo
[1] = test system: wheat leaf blotch fungus (Septoria tritici); assay: Wheat leaf blotch control test, foliage spray on wheat; details: Test Example 11; 200 ppm foliage spray; wheat (APOGEE); inoculated 4 days after spraying
[2] = test system: cucumber powdery mildew fungus (Sphaerotheca fuliginea, a QoI-resistant strain, cytochrome b position 143 glycine to alanine); assay: Cucumber powdery mildew control test, foliage spray on cucumber; details: Test Example 6, 500 ppm foliage spray, cucumber (SAGAMI HANJIRO), 8 days after inoculation
[3] = test system: rice blast fungus (Magnaporthe grisea); details: Test Example 7; 200 ppm foliage spray; rice (NIHONBARE); 6 days in contact with infected seedlings
[4] = test system: wheat rust fungus (Puccinia recondita); assay: Wheat rust control test, foliage spray on wheat; details: Test Example 8; 200 ppm foliage spray; wheat (SHIROGANE); inoculated 5 days after spraying
Method: (§1) The control effect was evaluated by visually observing the area of lesion spots on each of test plants at the time of investigation, and comparing the area of lesion spots on a plant treated with the present control agent with that on an untreated plant. The untreated plant is a plant tested under the same conditions as in Test Examples, except that foliage application of a diluted solution of a formulation containing the present compound with water is not performed.
Each of plastic pots was filled with sandy loam and wheat (cultivar: SHIROGANE) was sowed and grown in a greenhouse for 9 days. Each of the present compounds 1 to 5, 11, and 1 was diluted with water to adjust to a predetermined concentration of 500 ppm. The obtained diluted solution was sprayed over stems and leaves of the wheat so that they sufficiently adhered to the surface of the leaves of the wheat. After spraying, the plant was air-dried and cultivated at 20° C. for 5 days under illumination, and then inoculated by sprinkling with spores of wheat rust fungus (Puccinia recondita). After the inoculation, the plant was left to stand at 23° C. for one day under dark and high humidity condition, and cultivated under illumination at 20° C. for 8 days, and then the area of lesion spots was investigated. […]

[5] = test system: barley net blotch fungus (Pyrenophora teres); assay: Barley net blotch control test, foliage spray on barley; details: barley (MIKAMO GOLDEN), inoculated 2 days after spraying
Method: as §1
Each of plastic pots was filled with sandy loam and barley (cultivar: MIKAMO GOLDEN) was sowed and grown in a greenhouse for 7 days. Each of the present compounds 1 to 8, 10 to 12, and 14 was diluted with water to adjust to a predetermined concentration of 500 ppm. The obtained diluted solution was sprayed over stems and leaves of the barley so that it sufficiently adhered to the surface of the leaves of the barley. After spraying, the plant was air-dried. After 2 days, an aqueous suspension containing spores of barley net blotch fungus (Pyrenophora teres) was sprayed to inoculate the spores. After completion of the inoculation, the plant was left to stand for 3 days in a greenhouse at 23° C. in the daytime and 20° C. at night under high humidity condition and cultivated in a greenhouse for 7 days, and then the area of lesion spots was investigated. […]

COc1c(C(F)F)c(-c2ccc(OCc3ccccc3-n3nnn(C)c3=O)c(C)c2)nn1C [compound 9]
≤ 30%: area of lesion spots on treated plant relative to untreated plant [1]

COc1cc(-c2cc(C)c(OCc3ccccc3-n3nnn(C)c3=O)cc2C)nn1C [compound 14]
≤ 30%: area of lesion spots on treated plant relative to untreated plant [2] | lesion area on treated plant with respect to the lesion area on the non-treated plant [3] | area of lesion spots on treated plant relative to untreated plant [4] | area of lesion spots on treated plant relative to untreated plant ([5]; Test Example 3, 500 ppm foliage spray) | area of lesion spots on treated plant relative to untreated plant ([5]; Test Example 9, 200 ppm foliage spray)
